Measurements published in ChEMBL document CHEMBL1121922, “Synthesis and pharmacological evaluation of a series of analogues of 1-methylisoguanosine” (1981).
Calls of active or inactive are those of the source. No cut-off for these calls is given here.

How the values were obtained:
Rattus norvegicus [1] = experiment: Cardiovascular response in conscious hypertensive rats after administration of compound expressed as percent reduction in heart rate; NA= No activity; type: functional, organism-based
Mus musculus [2] = species: Mus musculus; experiment: Effective peroral dose hypothermic activity in mice; type: functional; settings: po
Mus musculus [3] = species: Mus musculus; experiment: Effective peroral dose for muscle relaxation in mice; type: functional; settings: po
Rattus norvegicus [4] = experiment: Antiallergic activity of 10 mg/kg intravenous dose of compound was assessed by the inhibition of passive paw anaphylaxis in rats; NA= No activity; type: functional, organism-based; parameters: dose 10 mg/kg; settings: at 10 mg/kg
Rattus norvegicus [5] = experiment: Antiinflammatory activity of 100mg/Kg, po compound was assessed by inhibition of carrageenan-induced edema in rats; NA= No activity; type: functional, organism-based
Rattus norvegicus [6] = experiment: Cardiovascular response in conscious hypertensive rats after administration of compound expressed as percent reduction in blood pressure; type: functional
Mus musculus [7] = species: Mus musculus; experiment: Effective peroral dose hypothermic activity in mice; 2.2-71.9; type: functional; settings: po
Rattus norvegicus [8] = experiment: Cardiovascular response in conscious hypertensive rats after administration of compound expressed as percent reduction in heart rate; type: functional
Rattus norvegicus [9] = experiment: Antiinflammatory activity of compound (25 mg/kg) was assessed by inhibition of carrageenan-induced edema in rats; type: functional
Mus musculus [10] = species: Mus musculus; experiment: Effective peroral dose for muscle relaxation in mice; 9.9-39.2; type: functional; settings: po
Rattus norvegicus [11] = experiment: Antiallergic activity of compound (10 mg/kg, iv) was assessed by the inhibition of passive paw anaphylaxis in rats; type: functional
Rattus norvegicus [12] = experiment: Cardiovascular response in conscious hypertensive rats after administration of compound expressed as percent reduction in blood pressure; NA= No activity; type: functional, organism-based
Rattus norvegicus [13] = experiment: Antiinflammatory activity of compound (100 mg/kg) was assessed by inhibition of carrageenan-induced edema in rats; NA= No activity; type: functional, organism-based
Rattus norvegicus [14] = experiment: Antiallergic activity of compound (10 mg/kg, iv) was assessed by the inhibition of passive paw anaphylaxis in rats; NA= No activity; type: functional, organism-based
Rattus norvegicus [15] = experiment: Antiinflammatory activity of 50mg/Kg, po compound was assessed by inhibition of carrageenan-induced edema in rats; no activity; type: functional
Rattus norvegicus [16] = experiment: Antiallergic activity of 10 mg/kg intravenous dose of compound was assessed by the inhibition of passive paw anaphylaxis in rats; type: functional
Mus musculus [17] = species: Mus musculus; experiment: Effective peroral dose hypothermic activity in mice; 6.3-18.7; type: functional; settings: po
Mus musculus [18] = species: Mus musculus; experiment: Effective peroral dose for muscle relaxation in mice; 7.7-16.3; type: functional; settings: po
Rattus norvegicus [19] = experiment: Antiinflammatory activity of compound (25 mg/kg) was assessed by inhibition of carrageenan-induced edema in rats
Rattus norvegicus [20] = experiment: Antiinflammatory activity of compound (50 mg/kg) was assessed by inhibition of carrageenan-induced edema in rats; type: functional
Mus musculus [21] = species: Mus musculus; experiment: Effective peroral dose for muscle relaxation in mice; 8.6-27.1; type: functional; settings: po
Mus musculus [22] = species: Mus musculus; experiment: Effective peroral dose hypothermic activity in mice; 7.5-20.7; type: functional; settings: po
Rattus norvegicus [23] = experiment: Antiinflammatory activity of compound (20 mg/kg) was assessed by inhibition of carrageenan-induced edema in rats; type: functional
Mus musculus [24] = species: Mus musculus; experiment: Effective peroral dose hypothermic activity in mice; 16.6-26.9; type: functional; settings: po
Mus musculus [25] = species: Mus musculus; experiment: Effective peroral dose for muscle relaxation in mice; 24.7-35.2; type: functional; settings: po
Rattus norvegicus [26] = experiment: Antiinflammatory activity of 25mg/Kg, po compound was assessed by inhibition of carrageenan-induced edema in rats; NA= No activity; type: functional, organism-based
Rattus norvegicus [27] = experiment: Antiallergic activity of compound (10mg/Kg, iv) was assessed by the inhibition of passive paw anaphylaxis in rats; NA= No activity; type: functional, organism-based

| SMILES | HR (Rattus norvegicus [1]) | ED50 (Mus musculus [2]) | ED50 (Mus musculus [3]) | inhibition (Rattus norvegicus [5]) | BP (Rattus norvegicus [6]) | HR (Rattus norvegicus [8]) | Inhibition (Rattus norvegicus [11]) | BP (Rattus norvegicus [12]) | further results |
| --- | --- | --- | --- | --- | --- | --- | --- | --- | --- |
| Cn1c(N)c2nc([C@@H]3O[C@H](CO)[C@@H](O)[C@H]3O)nc-2[nH]c1=O | inactive | > 100 mg/kg | > 100 mg/kg | inactive | -9% |  |  |  | inhibition (Rattus norvegicus [4]): inactive |
| Cn1c(=O)[nH]c2c(ncn2C2O[C@H](COP(=O)(O)O)[C@@H](O)[C@H]2O)c1=N (some centres not stated) |  |  |  |  | -44% | -48% | 57% |  | ED50 (Mus musculus [7]): 12.6 mg/kg; Inhibition (Rattus norvegicus [9]): 46%; ED50 (Mus musculus [10]): 19.7 mg/kg |
| C[C@H]1OC(n2cnc3c(=N)n(C)c(=O)[nH]c32)[C@H](O)[C@@H]1O (some centres not stated) | inactive | > 100 mg/kg | > 100 mg/kg | inactive |  |  |  | Not significant | inhibition (Rattus norvegicus [4]): inactive |
| Nc1nc(=O)[nH]c2c1ncn2[C@@H]1O[C@H](CO)[C@@H](O)[C@H]1O [ISOGUANOSINE] |  | > 100 mg/kg | > 100 mg/kg | inactive |  |  |  |  |  |
| Cn1c(=O)[nH]c2c(nc(Br)n2C2O[C@H](CO)[C@@H](O)[C@H]2O)c1=N (some centres not stated) | inactive | > 100 mg/kg | > 100 mg/kg |  |  |  |  | Not significant | inhibition (Rattus norvegicus [13]): inactive; inhibition (Rattus norvegicus [14]): inactive |
| Cn1c(=O)[nH]c2c(ncn2C2O[C@H](CI)[C@@H](O)[C@H]2O)c1=N (some centres not stated) | inactive | > 100 mg/kg | > 100 mg/kg |  |  |  | 14% | Not significant | inhibition (Rattus norvegicus [13]): inactive |
| Cn1c(=N)c2ncn3c2n(c1=O)C[C@H]1OC3[C@H](O)[C@@H]1O.I | inactive | > 100 mg/kg | > 100 mg/kg |  |  |  |  | Not significant | inhibition in vivo at 50 mg/kg (Rattus norvegicus [15]): 21%; inhibition in vivo at 10 mg/kg (Rattus norvegicus [16]): 45% |
| Cn1c(=O)[nH]c2c(ncn2C2O[C@H](CO)[C@@H](O)[C@H]2O)c1=N (some centres not stated) |  |  |  |  | -32% | -36% | 55% |  | ED50 (Mus musculus [17]): 10.9 mg/kg; ED50 (Mus musculus [18]): 11.2 mg/kg; Inhibition (Rattus norvegicus [19]): 62% |
| CCn1c(=O)[nH]c2c(ncn2C2O[C@H](CO)[C@@H](O)[C@H]2O)c1=N (some centres not stated) |  | > 100 mg/kg | > 100 mg/kg |  | -18% | -27% | 40% |  | Inhibition (Rattus norvegicus [20]): 17% |
| Cn1c(=O)[nH]c2c(nc(NN)n2C2O[C@H](CO)[C@@H](O)[C@H]2O)c1=N (some centres not stated) |  | > 100 mg/kg | > 100 mg/kg | inactive | -13% | -21% |  |  | inhibition (Rattus norvegicus [4]): inactive |
| Cn1c(=O)[nH]c2c(nc(N)n2C2O[C@H](CO)[C@@H](O)[C@H]2O)c1=N (some centres not stated) |  | > 100 mg/kg | > 100 mg/kg | inactive | -10% | -20% |  |  | inhibition (Rattus norvegicus [4]): inactive |
| CCCCCCCCn1c(=O)[nH]c2c(ncn2C2O[C@H](CO)[C@@H](O)[C@H]2O)c1=N (some centres not stated) | inactive | > 100 mg/kg | > 100 mg/kg |  |  |  | 14% | Not significant | inhibition (Rattus norvegicus [13]): inactive |
| N=c1c2ncn(C3O[C@H](CO)[C@@H](O)[C@H]3O)c2[nH]c(=O)n1-c1ccccc1 (some centres not stated) | inactive | > 100 mg/kg | > 100 mg/kg | inactive |  |  |  | Not significant | inhibition in vivo at 10 mg/kg (Rattus norvegicus [16]): 30% |
| Cn1c(=O)[nH]c2c(ncn2C2O[C@H](CO)[C@@H](O)[C@H]2O)c1=O (some centres not stated) | inactive | > 100 mg/kg | > 100 mg/kg | inactive |  |  |  | Not significant | inhibition (Rattus norvegicus [4]): inactive |
| COc1nc(N)c2ncn([C@@H]3O[C@H](CO)[C@@H](O)[C@H]3O)c2n1 [BVT.115959] |  |  |  |  | -41% | -25% | 56% |  | Inhibition (Rattus norvegicus [20]): 57%; ED50 (Mus musculus [21]): 15.3 mg/kg; ED50 (Mus musculus [22]): 12.5 mg/kg; Inhibition (Rattus norvegicus [23]): 25% |
| CCCCn1c(=O)[nH]c2c(ncn2C2O[C@H](CO)[C@@H](O)[C@H]2O)c1=N (some centres not stated) |  | > 100 mg/kg | > 100 mg/kg | inactive | -7% | -16% |  |  | inhibition in vivo at 10 mg/kg (Rattus norvegicus [16]): 35% |
| Cn1c(=O)[nH]c2c(ncn2C2O[C@@H]3COP(=O)(O)O[C@@H]3[C@@H]2O)c1=N (some centres not stated) |  |  |  |  | -17% | -37% |  |  | ED50 (Mus musculus [24]): 21.2 mg/kg; inhibition in vivo at 10 mg/kg (Rattus norvegicus [16]): 14%; ED50 (Mus musculus [25]): 29.5 mg/kg; inhibition (Rattus norvegicus [26]): inactive |
| Cn1c(=O)[nH]c2c(ncn2COCCO)c1=N | inactive | > 100 mg/kg | > 100 mg/kg |  |  |  |  | Not significant | inhibition (Rattus norvegicus [13]): inactive; inhibition (Rattus norvegicus [27]): inactive |
| Cn1c(=O)[nH]c2c(ncn2C2O[C@H](CO)[C@@H](O)[C@@H]2O)c1=N (some centres not stated) | inactive | > 100 mg/kg | > 100 mg/kg |  |  |  |  | Not significant | inhibition (Rattus norvegicus [13]): inactive; inhibition (Rattus norvegicus [27]): inactive |
